Patent publication US20170304388A1, “NEW INDICATION OF CARDIOVASCULAR DRUGS FOR PREPARATION OF CANCER INHIBITION PHARMACEUTICAL COMPOSITION” (LAUNX BIOMEDICAL CO., LTD., priority 2014, published 2017)

Experiments:
Assay type in all cases: cell-based
[1] = system: A549 (Lung Adenocarcinoma); test: Cell viability analysis (WST-1), A549; settings: Homo sapiens, A549, 72 h, Table 4, repeated experiments, drug 10 μM, WST-1, read-out: survival rate (viability) of cancer cells, A549
MDA-MB231 = test: Cell viability analysis (WST-1), MDA-MB231; settings: Homo sapiens, MDA-MB-231, 72 h, Table 4, repeated experiments, drug 10 μM, read-out: survival rate (viability) of cancer cells, MDA-MB231
[2] = system: PC3 (Prostate Adenocarcinoma); test: Cell viability analysis (WST-1), PC3; settings: 72 h, Table 4, repeated experiments, drug 10 μM, WST-1, read-out: survival rate (viability) of cancer cells, PC-3
[3] = system: MCF7 (Mammary Gland, Adenocarcinoma); test: Cell viability analysis (WST-1), MCF7; settings: Homo sapiens, MCF7, 72 h, Table 4, repeated experiments, drug 10 μM, WST-1, read-out: survival rate (viability) of cancer cells, MCF-7
786-O = test: Cell viability analysis (WST-1), 786-O; settings: Homo sapiens, 786-0, 72 h, Table 4, repeated experiments, drug 10 μM, read-out: survival rate (viability) of cancer cells, 786-O
Method in brief: (§1)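 Seeded at 3000 cells per well, then exposed to drug at 10 μM for 72 h. Viability measured by WST-1 reagent (1:10 in medium) for 30–90 min at 37° C, read as OD450, expressed as survival rate.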

AsPC-1 = test: Cell viability analysis (WST-1), AsPC-1; settings: Homo sapiens, ASPC1, 72 h, Table 4, repeated experiments, drug 10 μM, read-out: survival rate (viability) of cancer cells, AsPC-1
Method in brief: as §1

[4] = system: A375 (Amelanotic Melanoma); test: Cell viability analysis (WST-1), A375; settings: Homo sapiens, A-375, 72 h, Table 4, repeated experiments, drug 10 μM, WST-1, read-out: survival rate (viability) of cancer cells, A375
cancer cell lines = test: Growth inhibitory effects on the panel of cancer cell lines; settings: drug 10 μM, 72 hours, WST-1
[5] = system: HCT116 (Colorectal Carcinoma); test: Cell viability analysis (WST-1), HCT116; settings: Homo sapiens, HCT-116, 72 h, Table 4, repeated experiments, drug 10 μM, WST-1, read-out: survival rate (viability) of cancer cells, HCT116
BxPC-3 = test: Cell viability analysis (WST-1), BxPC-3; settings: Homo sapiens, BXPC-3, 72 h, Table 4, repeated experiments, drug 10 μM, read-out: survival rate (viability) of cancer cells, BxPC-3
Method in brief: as §1

BCC = test: Cell viability analysis (WST-1), BCC; settings: BCC, 72 h, Table 4, repeated experiments, drug 10 μM, read-out: survival rate (viability) of cancer cells, BCC
C-33A = test: Cell viability analysis (WST-1), C-33A; settings: Homo sapiens, C-33-A, 72 h, Table 4, repeated experiments, drug 10 μM, read-out: survival rate (viability) of cancer cells, C-33A
Method in brief: as §1

[6] = system: AGS (Gastric Adenocarcinoma); test: Cell viability analysis (WST-1), AGS; settings: 72 h, Table 4, repeated experiments, drug 10 μM, WST-1, read-out: survival rate (viability) of cancer cells, AGS
[7] = system: TSGH-8301 (Urinary Bladder Carcinoma); test: Cell viability analysis (WST-1), TSGH-8301; settings: 72 h, Table 4, repeated experiments, drug 10 μM, WST-1, read-out: survival rate (viability) of cancer cells, TSGH-8301
[8] = system: LoVo (Colorectal Adenocarcinoma); test: Cell viability analysis (WST-1), LoVo; settings: Homo sapiens, LoVo, 72 h, Table 4, repeated experiments, drug 10 μM, WST-1, read-out: survival rate (viability) of cancer cells, LoVo
U2OS = test: Cell viability analysis (WST-1), U2OS; settings: Homo sapiens, U2OS, 72 h, Table 4, repeated experiments, drug 10 μM, read-out: survival rate (viability) of cancer cells, U2OS
Method in brief: as §1

[9] = system: MKN-45 (Gastric Adenocarcinoma); test: Cell viability analysis (WST-1), MKN-45; settings: Homo sapiens, MKN-45, 72 h, Table 4, repeated experiments, drug 10 μM, WST-1, read-out: survival rate (viability) of cancer cells, MKN-45
NIH-OVCAR-3 = test: Cell viability analysis (WST-1), NIH-OVCAR-3; settings: Homo sapiens, OVCAR-3, 72 h, Table 4, repeated experiments, drug 10 μM, read-out: survival rate (viability) of cancer cells, NIH-OVCAR-3
Method in brief: as §1

T24 = test: Cell viability analysis (WST-1), T24; settings: Homo sapiens, T-24, 72 h, Table 4, repeated experiments, drug 10 μM, read-out: survival rate (viability) of cancer cells, T24
Method in brief: as §1

Hep3B = test: Cell viability analysis (WST-1), Hep3B; settings: Homo sapiens, Hep3B, 72 h, Table 4, repeated experiments, drug 10 μM, read-out: survival rate (viability) of cancer cells, Hep3B
Method in brief: as §1

SAS = test: Cell viability analysis (WST-1), SAS; settings: 72 h, Table 4, repeated experiments, drug 10 μM, read-out: survival rate (viability) of cancer cells, SAS
Method in brief: as §1

TOV-21G = test: Cell viability analysis (WST-1), TOV-21G; settings: Homo sapiens, TOV21G, 72 h, Table 4, repeated experiments, drug 10 μM, read-out: survival rate (viability) of cancer cells, TOV-21G
Method in brief: as §1

[10] = system: HepG2 (Hepatocellular Carcinoma); test: Cell viability analysis (WST-1), HepG2; settings: Homo sapiens, HepG2, 72 h, Table 4, repeated experiments, drug 10 μM, WST-1, read-out: survival rate (viability) of cancer cells, HepG2
[11] = system: H1650 (Lung Adenocarcinoma); test: Cell viability analysis (WST-1), H1650; settings: Homo sapiens, NCI-H1650, 72 h, Table 4, repeated experiments, drug 10 μM, WST-1, read-out: survival rate (viability) of cancer cells, H1650
[12] = system: HeLa (Cervix Adenocarcinoma); test: Cell viability analysis (WST-1), HeLa; settings: Homo sapiens, HeLa, 72 h, Table 4, repeated experiments, drug 10 μM, WST-1, read-out: survival rate (viability) of cancer cells, HeLa

Structure (SMILES): COc1ccc(-c2nc3ccc(C4=NNC(=O)CC4C)cc3[nH]2)cc1 (centres unmarked) [Pimobendan (Vetmedin), Pimobendan]
- viability at 10 µM [1]: 58.3%
- viability at 10 µM (MDA-MB231): 75%
- viability at 10 µM [2]: 69.5%
- viability at 10 µM [3]: 53.9%
- viability at 10 µM (786-O): 39.6%
- viability at 10 µM (AsPC-1): 69.3%
- viability at 10 µM [4]: 44.4%
- inhibition effect on different cancer cell lines (in words) (cancer cell lines): significant inhibition effect
- viability at 10 µM [5]: 53.6%
- viability at 10 µM (BxPC-3): 51.9%
- viability at 10 µM (BCC): 49.6%
- viability at 10 µM (C-33A): 62.8%
- viability at 10 µM [6]: 60.8%
- viability at 10 µM [7]: 59.4%
- viability at 10 µM [8]: 66.7%
- viability at 10 µM (U2OS): 56.6%
- viability at 10 µM [9]: 65.2%
- viability at 10 µM (NIH-OVCAR-3): 74.7%
- viability at 10 µM (T24): 74.2%
- viability at 10 µM (Hep3B): 94.8%
- viability at 10 µM (SAS): 51.1%
- viability at 10 µM (TOV-21G): 70.7%
- viability at 10 µM [10]: 87.2%
- viability at 10 µM [11]: 77.8%
- viability at 10 µM [12]: 34%

Structure (SMILES): COCCOC(=O)C1=C(C)NC(C)=C(C(=O)OC/C=C/c2ccccc2)C1c1cccc([N+](=O)[O-])c1 (centres unmarked) [Cilnidipine]
- viability at 10 µM [1]: 67.8%
- viability at 10 µM (MDA-MB231): 86.3%
- viability at 10 µM [2]: 61.4%
- viability at 10 µM [3]: 64.6%
- viability at 10 µM (786-O): 86.7%
- viability at 10 µM (AsPC-1): 57.6%
- viability at 10 µM [4]: 47.1%
- inhibition effect on different cancer cell lines (in words) (cancer cell lines): significant inhibition effect
- viability at 10 µM [5]: 88.6%
- viability at 10 µM (BxPC-3): 68.7%
- viability at 10 µM (BCC): 60.2%
- viability at 10 µM (C-33A): 93%
- viability at 10 µM [6]: 76.9%
- viability at 10 µM [7]: 95.9%
- viability at 10 µM [8]: 53.7%
- viability at 10 µM (U2OS): 43.1%
- viability at 10 µM [9]: 105%
- viability at 10 µM (NIH-OVCAR-3): 75.9%
- viability at 10 µM (T24): 108%
- viability at 10 µM (Hep3B): 92.7%
- viability at 10 µM (SAS): 38.9%
- viability at 10 µM (TOV-21G): 62.9%
- viability at 10 µM [10]: 77.1%
- viability at 10 µM [11]: 69%
- viability at 10 µM [12]: 64.3%
